In article PMC11858653, “Design, Synthesis and Bioactive Evaluation of Topo I/c-MYC Dual Inhibitors to Inhibit Oral Cancer via Regulating the PI3K/AKT/NF-κB Signaling Pathway” (Molecules, 2025):

Key:
Topo I = target: T1, Topo I (Homo sapiens, UniProt P11387); experiment: Topo I inhibitory activity, agarose gel electrophoresis (pBR322); assay type: biochemical
T1 sequence (P11387 1-765): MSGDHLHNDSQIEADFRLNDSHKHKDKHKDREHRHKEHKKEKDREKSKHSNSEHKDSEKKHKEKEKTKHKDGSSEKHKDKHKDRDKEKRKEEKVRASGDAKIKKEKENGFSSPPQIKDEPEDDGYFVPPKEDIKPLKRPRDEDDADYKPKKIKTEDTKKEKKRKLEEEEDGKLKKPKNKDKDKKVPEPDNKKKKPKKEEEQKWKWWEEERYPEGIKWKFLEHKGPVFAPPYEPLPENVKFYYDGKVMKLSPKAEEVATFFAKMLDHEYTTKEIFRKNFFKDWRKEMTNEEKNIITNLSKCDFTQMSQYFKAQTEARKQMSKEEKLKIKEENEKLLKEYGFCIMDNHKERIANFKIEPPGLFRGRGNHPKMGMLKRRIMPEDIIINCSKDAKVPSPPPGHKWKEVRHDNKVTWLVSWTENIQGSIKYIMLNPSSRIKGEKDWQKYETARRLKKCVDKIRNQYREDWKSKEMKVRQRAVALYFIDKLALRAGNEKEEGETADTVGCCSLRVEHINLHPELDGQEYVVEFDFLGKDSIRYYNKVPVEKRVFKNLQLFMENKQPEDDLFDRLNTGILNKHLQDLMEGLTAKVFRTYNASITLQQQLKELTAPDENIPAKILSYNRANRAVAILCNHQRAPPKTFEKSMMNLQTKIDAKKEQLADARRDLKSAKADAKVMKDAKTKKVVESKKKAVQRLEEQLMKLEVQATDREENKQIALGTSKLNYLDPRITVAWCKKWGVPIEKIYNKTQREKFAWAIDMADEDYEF
Experimental: In this assay, 250 ng of pBR322 plasmid DNA, different concentrations of the compounds to be tested, 0.1% BSA 1 μL, 10× Topo I buffer, Topo I and add 1× TAE buffer were mixed to a final volume of 20 μL. The reaction was carried out for 30 min at 37 °C in a water bath. After the reaction was terminated, 4 μL of each of the 6× DNA Sampling Buffers were added to the gel. The pBR322 plasmid DNA alone was used as a negative control, and camptothecin was used as a positive control. Finally, the samples were loaded onto the gels and electrophoresed for about 1.5 h. After electrophoresis, the gel blocks were incubated in 1 mg/L ethidium bromide (EB) for 30 min and then visualized on the gel system.

ACHN = experiment: MTT antiproliferative assay, ACHN; assay type: cell-based, human; conditions: Homo sapiens, ACHN, 48 h, mean ± SD
c-MYC = experiment: RT-qPCR of c-MYC transcription in Cal27 cells; assay type: cell-based, human; conditions: Cal27, 24 h
Experimental: Cal27 cells were plated in a 6-well plate and incubated for 12 h at 37 °C in a humidified atmosphere with 5% CO2, then compound 7be was added at final concentrations of 1 μM, 2 μM, 3 μM and 4 μM. After incubation for 24 h, cells were harvested, and the RNA was extracted according to the manufacturer’s instructions. Total RNA was used as a template for reverse transcription. The cDNA was obtained and applied directly for further qPCR. According to the manufacturer’s protocol, the real-time PCR was performed on a real-time PCR apparatus. The total volume of 20 μL of quantitative reaction mixtures contained 10 μL of SYBR Green qPCR Mix, 0.4 μL PCR Forward Primer (10 μM), 0.4 μL PCR Reverse Primer (10 μM) and 2 μL of cDNA (Table S4). The c-MYC mRNA levels were normalized to the GAPDH mRNA level of each sample. Results of real-time PCR were analyzed using the 2^−ΔCt method.

[1] = tested on: LC3, p62, Beclin-1 in Cal27 cells; experiment: Western blot of autophagy-related markers; assay type: cell-based, human
Experimental: In addition, in order to further clarify the potential mechanism of autophagy induced by compound 7be, Western blot analysis was used to detect the expression of autophagy-related markers, including microtubule-associated protein 1 light chain protein-3 protein (LC3), p62 and Beclin-1. In the process of autophagy, LC3 is essential for the maturation of the autophagosome and its fusion with the lysosome.
After Cal27 cells had been treated with the desired concentration of each drug for 24 h, the cells were collected and the total protein was extracted. The cells were then separated on a gel of appropriate concentration and transferred to a PVDF membrane. After blocking with milk, the membrane was incubated with primary antibody at 4 °C overnight. Subsequently, the membrane was incubated with horseradish peroxidase-coupled secondary antibody for 2 h. Finally, the protein bands were used to detect the immunoreactive signal using an enhanced chemiluminescence kit.

MGC-803 = experiment: MTT antiproliferative assay, MGC-803; assay type: cell-based, human; conditions: Homo sapiens, MGC-803, 48 h, mean ± SD
Cal27 cells = experiment: Annexin V-FITC/PI apoptosis assay; assay type: cell-based, human; conditions: Cal27, 24 h, increased from 5.88%; treated with 1, 2, 3 and 4 μM
Experimental: Cal27 cells were treated with compound 7be for 24 h. Tumor cells were then digested and collected. The resulting cells were incubated with Annexin V/PI light-avoidance staining for 0.5 h. Finally, different stages of apoptosis populations of Cal27 cells were immediately analyzed by flow cytometry.

Topo I inhibitory activity (in words) (Topo I; 20 μM): potent Topo I activity | concentration at which the activity of Topo I was fully inhibited (Topo I; different concentrations): 20 µM | IC50 (ACHN): 3.25 ± 1.59 µM | IC50 (MGC-803): 1.69 ± 0.24 µM
SMILES: Cc1cc(C)c2c(n1)S(=O)(=O)c1c-2nc(NCCN2CCCCC2)c2ccccc12 [7be, 7,9-Dimethyl-5-((2-(piperidin-1-yl)ethyl)amino) pyrido[3′,2′:4,5]thieno[3,2-c]isoquinoline 11,11-dioxide]
concentration needed to significantly inhibit the transcription of c-MYC (c-MYC): 8 µM | expression of autophagy biomarkers Beclin-1 and LC3-II [1]: upregulated | expression of p62 [1]: decreased | number of apoptotic cells (early and late apoptotic cells) (Cal27 cells): 32.8%
